The record followed here is patent US6444821B1, “Crystals of piperidine derivatives, intermediates for production of the same, and process for producing the same” (Ajinomoto Co., Inc., priority 1995, dated 2002).

Data set [1] can be described thus: Oral bioavailability in Beagle dog (plasma AUC oral vs intravenous). It counts as in vivo. The settings on record: 3.0 mg/kg, plasma sampled 30 minutes to 24 hours. The procedure:
Each of the monohydrate and trihydrate crystals of Compound (I) produced in Examples 4 and 6 was orally administered to a Beagle dog at a dose of 3.0 mg/kg. After 30 minutes, 1 hour, 2 hours, 3 hours, 4 hours, 6 hours, 8 hours and 24 hours of the administration, the blood was collected, the concentration of Compound (I) in the plasma was measured, and the area under plasma concentration curve (AUC) was obtained.

Data set [2] can be described thus: Storage stability of crystals. The following applies: storage for 1 month. It counts as physicochemical. From the text: Still further, the monohydrate and trihydrate crystals of the present invention can be easily produced from α-type anhydride crystals and β-type anhydride crystals.
Data set [3] is described as follows: Dissolution rate in gastric juice model solution (JP-1 solution). It counts as physicochemical. The following applies: 20 mg crystals in 500 ml JP-1 solution, 37° C., FIG. 9. The procedure:
Each 20 mg of the monohydrate and trihydrate crystals of Compound (I) produced in Examples 4 and 6 was added to 500 ml of a gastric juice model solution (JP-1 solution according to Japan Pharmacopeia) of 37° C., and the concentration of Compound (I) in the solution was measured over the course of time.

Structures can show the parent of a compound that is named as a salt.

For `O=CN1CCC(C(=O)NCCN2CCC(=C3c4ccccc4C=Cc4ccccc43)CC2)CC1` [monohydrate crystals, N-(2-(4-(5H-dibenzo(a,d)cyclohepten-5-ylidene)-piperidino)ethyl)-1-formyl-4-piperidinecarboxamide hydrochloride monohydrate], the “bioavailability (ratio of the AUC value of oral administration to that of intravenous administration)” value in data set [1] (hydrochloride monohydrate) is given as 73.4%. Further, the “stability (chemical and physical) on storage” value in data set [2] is listed as “unchanged even after storage for 1 month”.
Take `O=CN1CCC(C(=O)NCCN2CCC(=C3c4ccccc4C=Cc4ccccc43)CC2)CC1` [trihydrate crystals, N-(2-(4-(5H-dibenzo[a,d]cyclohepten-5-ylidene)-piperidino)ethyl)-1-formyl-4-piperidinecarboxamide hydrochloride trihydrate]: in data set [1] (hydrochloride trihydrate), the “bioavailability (ratio of the AUC value of oral administration to that of intravenous administration)” value stood at 49.6%. Moreover, in data set [3], the dissolution rate entry is “high dissolution rate compared to the monohydrate crystals”.
